pIC50: −log10 of the molar value.
Assays:
HCT116 xenograft = HCT116 xenograft study in nude mice; assay type: in vivo; settings: all doses
From the text: Tumor volume (mm^3) vs days the graph is indicated in FIG. 6 (a), body weight vs days after injection graph is in FIG. 6 (b), and FIG. 6 (c) is HCT116 Control vs […] image.

Lovo xenograft = Lovo xenograft study in nude mice; assay type: in vivo
HCT116 (MLH1 deficient) = test: xCELLigence real time cell proliferation/cytotoxicity; settings: read-out: IC50, cytotoxicity; HCT116, 5, 10, 20 μM, 72 h, RTCA software

## Nc1c(/N=N/c2ccc(-c3ccc(/N=N/c4cc(S(=O)(=O)O)c5ccccc5c4N)cc3)cc2)cc(S(=O)(=O)O)c2ccccc12 [Formula II]
HCT116 xenograft
  Tumor volume: decreased tumor volume in all doses
Lovo xenograft
  Tumor growth: did not affect the tumor growth
HCT116 (MLH1 deficient)
  pIC50: 5.28

Source: patent US11883419B2, “DNA polymerase gamma inhibitor and uses thereof” (ACIBADEM MEHMET ALI AYDINLAR UNIVERSITESI, priority 2018, dated 2024)
